Data published in US20090291442A1, “HSPA1A AS A MARKER FOR SENSITIVITY TO KSP INHIBITORS” (SMITHKLINE BEECHAM CORPORATION, priority 2006, published 2009).
Where a name gives a salt, the structure may show the parent alone.

How the values were obtained:
[1] = tested on: Colo201 (colon cancer); assay: Cell line sensitivity to KSP inhibitor (FACS analysis); format: cell-based; settings: Colo201 cells
Text: (§1) Baseline expression of HSPA1a was validated in 4 cell lines: MX1 (breast cancer) and MV522 (lung cancer) resistant to Ispinesib mesylate and Colo201 (colon cancer) and Colo205 (colon cancer) sensitive to Ispinesib mesylate inhibition. Like the tumors, HSPA1a expression differentiated the resistant cell lines from the sensitive cell lines.
(§2) A more extensive list of preclinical cell lines compared with those presented in Example 2, including cell lines from both solid and liquid tumors, was analyzed. Again, these cell lines were previously determined to be either resistant or sensitive to Ispinesib mesylate using FACS analysis. […] Of the 22 cell lines analyzed, HSPA1a expression levels were correctly able to classify 19 cell lines as resistant or sensitive to the KSP inhibitor. The HSPA1a marker misclassified 2 cell lines Daudi and HCT116 as sensitive (due to low baseline expression in these cells) and HeLaS3 cell line as resistant (due to high baseline expression of HSPA1a in these cells).

[2] = tested on: MV522 (lung cancer); assay: as above; format: cell-based; settings: MV522 cells
Text: as §1, §2

[3] = tested on: MX1 (breast cancer); assay: as above; format: cell-based; settings: MX1 cells
Text: as §1, §2

[4] = tested on: Colo205 (colon cancer); assay: as above; format: cell-based; settings: Colo205 cells
Text: as §1, §2

[5] = molecular target: T1, KSP (Homo sapiens, UniProt P52732); settings: literature statement; cited from earlier work
T1 sequence (P52732 1-1056): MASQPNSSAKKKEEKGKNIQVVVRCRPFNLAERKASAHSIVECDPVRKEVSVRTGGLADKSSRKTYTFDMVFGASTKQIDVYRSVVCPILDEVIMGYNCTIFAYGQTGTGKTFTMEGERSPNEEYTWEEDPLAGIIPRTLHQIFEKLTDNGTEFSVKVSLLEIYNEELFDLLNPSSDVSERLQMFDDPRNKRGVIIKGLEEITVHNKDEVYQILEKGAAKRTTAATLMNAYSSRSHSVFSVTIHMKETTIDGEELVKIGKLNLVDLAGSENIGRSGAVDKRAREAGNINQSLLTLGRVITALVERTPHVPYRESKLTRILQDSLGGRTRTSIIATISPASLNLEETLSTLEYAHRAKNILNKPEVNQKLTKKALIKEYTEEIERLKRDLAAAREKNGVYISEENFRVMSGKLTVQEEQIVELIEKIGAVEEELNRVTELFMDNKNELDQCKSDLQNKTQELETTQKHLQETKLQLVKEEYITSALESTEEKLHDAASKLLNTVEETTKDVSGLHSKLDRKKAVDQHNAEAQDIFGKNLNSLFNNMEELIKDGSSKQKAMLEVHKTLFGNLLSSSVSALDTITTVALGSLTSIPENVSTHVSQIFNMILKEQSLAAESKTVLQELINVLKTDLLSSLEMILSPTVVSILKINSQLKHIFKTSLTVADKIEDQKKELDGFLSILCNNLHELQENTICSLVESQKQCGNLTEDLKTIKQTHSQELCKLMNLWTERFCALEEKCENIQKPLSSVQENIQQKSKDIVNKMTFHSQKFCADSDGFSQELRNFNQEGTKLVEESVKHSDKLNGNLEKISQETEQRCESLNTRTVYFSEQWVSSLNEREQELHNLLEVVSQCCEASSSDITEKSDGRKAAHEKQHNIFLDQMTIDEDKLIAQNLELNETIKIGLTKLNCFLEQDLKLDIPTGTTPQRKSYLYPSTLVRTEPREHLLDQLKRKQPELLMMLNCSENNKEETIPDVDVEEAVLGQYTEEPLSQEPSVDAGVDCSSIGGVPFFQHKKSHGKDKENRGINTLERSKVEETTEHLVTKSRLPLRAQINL

[6] = tested on: Wilm's tumor WT10 xenograft; assay: Outcome of human Wilm's tumor xenograft WT10 to KSP inhibitor; format: in vivo; settings: Wilm's tumor xenograft WT10, known outcome
Procedure: (§3) Affymetrix® gene expression profiling was conducted to identify baseline expression patterns associated with sensitivity to the KSP inhibitor in human Wilm's tumor xenograft models. Total RNA from three distinct Wilm's tumors with known outcomes to Ispinesib mesylate (2-3 replicates) inhibition was labeled using a 5 μg protocol and hybridized to the HG-U133A Affymetrix® array. Baseline gene expression differences between tumors resistant (WT7 and WT8) and sensitive (WT10) to Ispinesib mesylate were compared. […] Validation by QPCR of the same tumors confirmed this expression pattern.

[7] = tested on: Wilm's tumor WT7 xenograft; assay: Outcome of human Wilm's tumor xenograft WT7 to KSP inhibitor; format: in vivo; settings: Wilm's tumor xenograft WT7, known outcome
Procedure: as §3

[8] = tested on: Wilm's tumor WT8 xenograft; assay: Outcome of human Wilm's tumor xenograft WT8 to KSP inhibitor; format: in vivo; settings: Wilm's tumor xenograft WT8, known outcome
Procedure: as §3

With `Cc1ccc(C(=O)N(CCCN)[C@@H](c2nc3cc(Cl)ccc3c(=O)n2Cc2ccccc2)C(C)C)cc1` [Ispinesib mesylate] the “cell line resistant or sensitive to the compound” value (“cell line resistant or sensitive” below) [1] was “sensitive”, the “cell line resistant or sensitive” value [2] was “resistant” and the “cell line resistant or sensitive” value [3] was “resistant”. For the same compound, the “cell line resistant or sensitive” value [4] was “sensitive”, the “inhibition of KSP (in words)” value [5] was “potent and selective inhibitor of KSP” and the “tumor resistant or sensitive to the compound” value (shortened to “tumor resistant or sensitive”) [6] was “sensitive”. The “tumor resistant or sensitive” value [7] was “resistant” and the “tumor resistant or sensitive” value [8] was “resistant”.
